US10167262B2, “Herbicidal substituted 3-arylpyrazoles” (FMC CORPORATION, priority 2014, dated 2019)

Each molecule was assayed on large (Lg) crabgrass (Digitaria sanguinalis) (assay: Test C pre-/postemergence greenhouse test, plant response rating 0-100). Settings: Postemergence, 31 g ai/ha.
Assay type: in vivo
Summary of the method: (§1)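 Scores run from 0, no effect, to 100, complete control, assigned by eye after treated plants and controls spent 13 to 15 days in a greenhouse. Soil-applied treatment went onto freshly sown seed in loam and sand; foliar treatment hit seedlings at the 1- to 4-leaf stage.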

Row | SMILES | Plant response rating (0 to 100), Crabgrass, Large
1 | CCn1cc(C(=O)c2ccccc2)c(-c2cc(Br)cc(Br)c2)n1 [Compound 38] | 0

Same assay, conditions: Postemergence, 62 g ai/ha

Row | SMILES | Plant response rating (0 to 100), Crabgrass, Large
2 | CCn1cc(C(=O)c2ccccc2)c(-c2cc(Br)cc(Br)c2)n1 [Compound 38] | 0

Same assay, conditions: Postemergence, 125 g ai/ha

Row | SMILES | Plant response rating (0 to 100), Crabgrass, Large
3 | CCn1cc(C(=O)c2ccccc2)c(-c2cc(Br)cc(Br)c2)n1 [Compound 38] | 0

Same assay, conditions: Postemergence, 250 g ai/ha; scale 0 to 100

Row | SMILES | Plant response rating, Crabgrass, Large
4 | CCn1cc(C(=O)c2ccccc2)c(-c2cc(Br)cc(Br)c2)n1 [Compound 38] | 0

Each molecule was assayed on soybean (Glycine max) in the same assay as above. Settings: Postemergence, 62 g ai/ha.
Assay type: in vivo
Summary of the method: as §1

Row | SMILES | Plant response rating (0 to 100), Soybean
5 | CCn1cc(C(=O)c2ccccc2)c(-c2cc(Br)cc(Br)c2)n1 [Compound 38] | 0

Same assay, conditions: Postemergence, 125 g ai/ha

Row | SMILES | Plant response rating (0 to 100), Soybean
6 | CCn1cc(C(=O)c2ccccc2)c(-c2cc(Br)cc(Br)c2)n1 [Compound 38] | 0

Same assay, conditions: Postemergence, 250 g ai/ha; scale 0 to 100

Row | SMILES | Plant response rating, Soybean
7 | CCn1cc(C(=O)c2ccccc2)c(-c2cc(Br)cc(Br)c2)n1 [Compound 38] | 0

These molecules were tested on galium (catchweed bedstraw, Galium aparine) in the same assay as above. Settings: Postemergence, 31 g ai/ha.
Assay type: in vivo
Summary of the method: as §1

Row | SMILES | Plant response rating (0 to 100), Galium
8 | CCn1cc(C(=O)c2ccccc2)c(-c2cc(Br)cc(Br)c2)n1 [Compound 38] | 0

Same assay, conditions: Postemergence, 62 g ai/ha

Row | SMILES | Plant response rating (0 to 100), Galium
9 | CCn1cc(C(=O)c2ccccc2)c(-c2cc(Br)cc(Br)c2)n1 [Compound 38] | 0

Same assay, conditions: Postemergence, 125 g ai/ha

Row | SMILES | Plant response rating (0 to 100), Galium
10 | CCn1cc(C(=O)c2ccccc2)c(-c2cc(Br)cc(Br)c2)n1 [Compound 38] | 0

Same assay, conditions: Postemergence, 250 g ai/ha; scale 0 to 100

Row | SMILES | Plant response rating, Galium
11 | CCn1cc(C(=O)c2ccccc2)c(-c2cc(Br)cc(Br)c2)n1 [Compound 38] | 5

Each molecule was assayed on ragweed (common ragweed, Ambrosia elatior) in the same assay as above. Settings: Postemergence, 62 g ai/ha.
Assay type: in vivo
Summary of the method: as §1

Row | SMILES | Plant response rating (0 to 100), Ragweed
12 | CCn1cc(C(=O)c2ccccc2)c(-c2cc(Br)cc(Br)c2)n1 [Compound 38] | 10

Same assay, conditions: Postemergence, 125 g ai/ha

Row | SMILES | Plant response rating (0 to 100), Ragweed
13 | CCn1cc(C(=O)c2ccccc2)c(-c2cc(Br)cc(Br)c2)n1 [Compound 38] | 20

Same assay, conditions: Postemergence, 250 g ai/ha; scale 0 to 100

Row | SMILES | Plant response rating, Ragweed
14 | CCn1cc(C(=O)c2ccccc2)c(-c2cc(Br)cc(Br)c2)n1 [Compound 38] | 35

Each molecule was assayed on lambsquarters (Chenopodium album) in the same assay as above. Settings: Postemergence, 62 g ai/ha.
Assay type: in vivo
Summary of the method: as §1

Row | SMILES | Plant response rating (0 to 100), Lambsquarters
15 | CCn1cc(C(=O)c2ccccc2)c(-c2cc(Br)cc(Br)c2)n1 [Compound 38] | 75

Same assay, conditions: Postemergence, 125 g ai/ha

Row | SMILES | Plant response rating (0 to 100), Lambsquarters
16 | CCn1cc(C(=O)c2ccccc2)c(-c2cc(Br)cc(Br)c2)n1 [Compound 38] | 75

Same assay, conditions: Postemergence, 250 g ai/ha; scale 0 to 100

Row | SMILES | Plant response rating, Lambsquarters
17 | CCn1cc(C(=O)c2ccccc2)c(-c2cc(Br)cc(Br)c2)n1 [Compound 38] | 100

Each molecule was assayed on morningglory (Ipomoea coccinea) in the same assay as above. Settings: Postemergence, 62 g ai/ha.
Assay type: in vivo
Summary of the method: as §1

Row | SMILES | Plant response rating (0 to 100), Morningglory
18 | CCn1cc(C(=O)c2ccccc2)c(-c2cc(Br)cc(Br)c2)n1 [Compound 38] | 0

Same assay, conditions: Postemergence, 125 g ai/ha

Row | SMILES | Plant response rating (0 to 100), Morningglory
19 | CCn1cc(C(=O)c2ccccc2)c(-c2cc(Br)cc(Br)c2)n1 [Compound 38] | 5

Same assay, conditions: Postemergence, 250 g ai/ha; scale 0 to 100

Row | SMILES | Plant response rating, Morningglory
20 | CCn1cc(C(=O)c2ccccc2)c(-c2cc(Br)cc(Br)c2)n1 [Compound 38] | 5

These molecules were tested on velvetleaf (Abutilon theophrasti) in the same assay as above. Settings: Postemergence, 62 g ai/ha.
Assay type: in vivo
Summary of the method: as §1

Row | SMILES | Plant response rating (0 to 100), Velvetleaf
21 | CCn1cc(C(=O)c2ccccc2)c(-c2cc(Br)cc(Br)c2)n1 [Compound 38] | 75

Same assay, conditions: Postemergence, 125 g ai/ha

Row | SMILES | Plant response rating (0 to 100), Velvetleaf
22 | CCn1cc(C(=O)c2ccccc2)c(-c2cc(Br)cc(Br)c2)n1 [Compound 38] | 90

What follows are molecules tested on blackgrass (Alopecurus myosuroides) in the same assay as above. Settings: Postemergence, 31 g ai/ha.
Assay type: in vivo
Summary of the method: as §1

Row | SMILES | Plant response rating (0 to 100), Blackgrass
23 | CCn1cc(C(=O)c2ccccc2)c(-c2cc(Br)cc(Br)c2)n1 [Compound 38] | 0

Same assay, conditions: Postemergence, 62 g ai/ha

Row | SMILES | Plant response rating (0 to 100), Blackgrass
24 | CCn1cc(C(=O)c2ccccc2)c(-c2cc(Br)cc(Br)c2)n1 [Compound 38] | 0

Same assay, conditions: Postemergence, 125 g ai/ha

Row | SMILES | Plant response rating (0 to 100), Blackgrass
25 | CCn1cc(C(=O)c2ccccc2)c(-c2cc(Br)cc(Br)c2)n1 [Compound 38] | 0

Same assay, conditions: Postemergence, 250 g ai/ha; scale 0 to 100

Row | SMILES | Plant response rating, Blackgrass
26 | CCn1cc(C(=O)c2ccccc2)c(-c2cc(Br)cc(Br)c2)n1 [Compound 38] | 5

What follows are molecules tested on yellow nutsedge (Cyperus esculentus) in the same assay as above. Settings: Postemergence, 62 g ai/ha.
Assay type: in vivo
Summary of the method: as §1

Row | SMILES | Plant response rating (0 to 100), Nutsedge, Yellow
27 | CCn1cc(C(=O)c2ccccc2)c(-c2cc(Br)cc(Br)c2)n1 [Compound 38] | 0

Same assay, conditions: Postemergence, 125 g ai/ha

Row | SMILES | Plant response rating (0 to 100), Nutsedge, Yellow
28 | CCn1cc(C(=O)c2ccccc2)c(-c2cc(Br)cc(Br)c2)n1 [Compound 38] | 0

Same assay, conditions: Postemergence, 250 g ai/ha; scale 0 to 100

Row | SMILES | Plant response rating, Nutsedge, Yellow
29 | CCn1cc(C(=O)c2ccccc2)c(-c2cc(Br)cc(Br)c2)n1 [Compound 38] | 0

The molecules below were run on pigweed (Amaranthus retroflexus) in the same assay as above. Settings: Postemergence, 62 g ai/ha.
Assay type: in vivo
Summary of the method: as §1

Row | SMILES | Plant response rating (0 to 100), Pigweed
30 | CCn1cc(C(=O)c2ccccc2)c(-c2cc(Br)cc(Br)c2)n1 [Compound 38] | 85

Same assay, conditions: Postemergence, 250 g ai/ha; scale 0 to 100

Row | SMILES | Plant response rating, Pigweed
31 | CCn1cc(C(=O)c2ccccc2)c(-c2cc(Br)cc(Br)c2)n1 [Compound 38] | 100

These molecules were tested on Italian ryegrass (Lolium multiflorum) in the same assay as above. Settings: Postemergence, 62 g ai/ha.
Assay type: in vivo
Summary of the method: as §1

Row | SMILES | Plant response rating (0 to 100), Ryegrass, Italian
32 | CCn1cc(C(=O)c2ccccc2)c(-c2cc(Br)cc(Br)c2)n1 [Compound 38] | 0

Same assay, conditions: Postemergence, 125 g ai/ha

Row | SMILES | Plant response rating (0 to 100), Ryegrass, Italian
33 | CCn1cc(C(=O)c2ccccc2)c(-c2cc(Br)cc(Br)c2)n1 [Compound 38] | 0

Same assay, conditions: Postemergence, 250 g ai/ha; scale 0 to 100

Row | SMILES | Plant response rating, Ryegrass, Italian
34 | CCn1cc(C(=O)c2ccccc2)c(-c2cc(Br)cc(Br)c2)n1 [Compound 38] | 0

The molecules below were run on goosegrass (Eleusine indica) (assay: Test C postemergence greenhouse test, plant response rating 0-100). Settings: 31 g ai/ha.
Assay type: in vivo
Summary of the method: (§2)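 First, plants were raised in a sphagnum peat, vermiculite and nutrient medium to 1–4 leaves. Next, formulated test compounds were applied over the foliage. Finally, after 13–15 greenhouse days, injury was compared with controls and scored 0–100.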

Row | SMILES | Plant response rating (0 to 100), Goosegrass
35 | CCn1cc(C(=O)c2ccccc2)c(-c2cc(Br)cc(Br)c2)n1 [Compound 38] | 0

Same assay, conditions: 62 g ai/ha

Row | SMILES | Plant response rating (0 to 100), Goosegrass
36 | CCn1cc(C(=O)c2ccccc2)c(-c2cc(Br)cc(Br)c2)n1 [Compound 38] | 0

Same assay, conditions: 125 g ai/ha

Row | SMILES | Plant response rating (0 to 100), Goosegrass
37 | CCn1cc(C(=O)c2ccccc2)c(-c2cc(Br)cc(Br)c2)n1 [Compound 38] | 0

Same assay, conditions: 250 g ai/ha, scale 0 to 100

Row | SMILES | Plant response rating, Goosegrass
38 | CCn1cc(C(=O)c2ccccc2)c(-c2cc(Br)cc(Br)c2)n1 [Compound 38] | 0

These molecules were tested on bermudagrass (Cynodon dactylon) in the same assay as above. Settings: 31 g ai/ha.
Assay type: in vivo
Summary of the method: as §2

Row | SMILES | Plant response rating (0 to 100), Bermudagrass
39 | CCn1cc(C(=O)c2ccccc2)c(-c2cc(Br)cc(Br)c2)n1 [Compound 38] | 0

Same assay, conditions: 62 g ai/ha

Row | SMILES | Plant response rating (0 to 100), Bermudagrass
40 | CCn1cc(C(=O)c2ccccc2)c(-c2cc(Br)cc(Br)c2)n1 [Compound 38] | 0

Same assay, conditions: 125 g ai/ha

Row | SMILES | Plant response rating (0 to 100), Bermudagrass
41 | CCn1cc(C(=O)c2ccccc2)c(-c2cc(Br)cc(Br)c2)n1 [Compound 38] | 0

Same assay, conditions: 250 g ai/ha, scale 0 to 100

Row | SMILES | Plant response rating, Bermudagrass
42 | CCn1cc(C(=O)c2ccccc2)c(-c2cc(Br)cc(Br)c2)n1 [Compound 38] | 0
